# US20230083015A1, “SMALL MOLECULE DEGRADERS OF STAT3” (THE REGENTS OF THE UNIVERSITY OF MICHIGAN, priority 2019, published 2023)
# Assays:
# Format in all cases: cell-based
# [1] = test system: ALCL and AML cell lines expressing high levels of STAT3; assay: Cell growth inhibition in ALCL and AML cell lines
# Description: FIG. 12 is a table showing that Cpd.
# [2] = target: T1, STAT3 (Homo sapiens, UniProt P40763); assay: Western blotting of total STAT1, STAT2, STAT3, STAT4, STAT5 and STAT6 protein in SU-DHL-1 and SUP-M2 cells; set-up: endogenous in cells
# T1 sequence (P40763 whole entry): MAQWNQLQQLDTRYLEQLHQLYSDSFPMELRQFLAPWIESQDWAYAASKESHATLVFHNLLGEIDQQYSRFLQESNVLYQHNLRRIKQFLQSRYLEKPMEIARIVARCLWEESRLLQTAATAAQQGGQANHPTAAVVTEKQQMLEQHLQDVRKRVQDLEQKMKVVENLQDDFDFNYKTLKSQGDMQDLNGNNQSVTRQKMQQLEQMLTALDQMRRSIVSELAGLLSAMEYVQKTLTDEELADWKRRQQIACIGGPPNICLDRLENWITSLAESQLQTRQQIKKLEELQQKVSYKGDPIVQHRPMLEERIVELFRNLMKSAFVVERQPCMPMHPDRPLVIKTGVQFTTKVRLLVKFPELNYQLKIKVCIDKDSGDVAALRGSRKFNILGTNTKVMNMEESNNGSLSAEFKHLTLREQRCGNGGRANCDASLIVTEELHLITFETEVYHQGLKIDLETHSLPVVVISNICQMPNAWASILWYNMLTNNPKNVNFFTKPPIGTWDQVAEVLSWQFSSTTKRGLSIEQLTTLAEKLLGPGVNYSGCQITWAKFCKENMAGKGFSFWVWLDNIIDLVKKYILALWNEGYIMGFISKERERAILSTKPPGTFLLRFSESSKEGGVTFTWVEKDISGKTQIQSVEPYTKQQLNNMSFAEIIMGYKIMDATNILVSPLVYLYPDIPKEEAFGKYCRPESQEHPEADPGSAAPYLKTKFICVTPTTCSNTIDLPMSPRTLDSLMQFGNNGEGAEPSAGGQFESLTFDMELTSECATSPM
# Method: FIG. 11 is an image showing the Western blotting analysis of total STAT1, STAT2, STAT3, STAT4, STAT5, and STAT6 protein in SU-DHL-1 and SUP-M2 cells treated with Cpd. Nos. 36 and 37. Cpd.
# (§1) In vitro cultured cells or xenograft tumors were lysed 1× Cell Lysis Buffer (Cell Signaling Technology, #9803), resolved by SDS-PAGE NuPAGE gel (Thermo Fisher Scientific), and transferred to a PVDF membrane (Bio Rad). For chemiluminescence immunoblotting, membranes were blocked for 1 h using 5% Blotting-Grade Blocker (#1706404, Bio Rad) in 1× Tris-buffered saline with Tween 20 (TBST, Pierce). Antibodies used were: rabbit mAbs for STAT3 (Cell Signaling Technology, #4368, #12640) and p-STAT3 (Y705) (Cell Signaling Technology, #9245, #52075). HRP conjugated goat anti-rabbit IgG (H+L) (#A27036) secondary antibodies was from Thermo Fisher Scientific. GAPDH (Santa Cruz Technology, sc-47724HRP) and actin (Santa Cruz Technology, sc-8432HRP, sc-47778HRP) were loading controls. For fluorescent immunoblotting, membranes were blocked using Odyssey TBS Blocker Buffer (LI-COR). IRDye 680RD and 800CW Dye-labeled secondary antibodies (LI-COR) were used. The washed membranes were scanned using Odyssey CLx imager (LI-COR). The intensity of Western blot signaling was quantitated using the Odyssey software.
# [3] = target: T1, STAT3; assay: Western blotting of total STAT1, STAT2, STAT3, STAT5 and STAT6 protein in Molm-16 cells; set-up: endogenous in cells; host or cells: MOLM-16
# Method: FIG. 10 is an image showing the Western blotting analysis of total STAT1, STAT2, STAT3, STAT5, and STAT6 protein in Molm-16 cells treated with Cpd. No. 36. Cpd.
# as §1
# [4] = target: T2, mutated STAT3 proteins (Homo sapiens, UniProt P40763, Y705F); assay: Western blotting of total STAT3 and p-STAT3 (Y705) in DLD-1 and DLD-1 (Y705F) cells
# T2 construct: endogenous in cells; host or cells: DLD-1 (Y705F)
# T2 sequence (P40763 2-770 Y705F): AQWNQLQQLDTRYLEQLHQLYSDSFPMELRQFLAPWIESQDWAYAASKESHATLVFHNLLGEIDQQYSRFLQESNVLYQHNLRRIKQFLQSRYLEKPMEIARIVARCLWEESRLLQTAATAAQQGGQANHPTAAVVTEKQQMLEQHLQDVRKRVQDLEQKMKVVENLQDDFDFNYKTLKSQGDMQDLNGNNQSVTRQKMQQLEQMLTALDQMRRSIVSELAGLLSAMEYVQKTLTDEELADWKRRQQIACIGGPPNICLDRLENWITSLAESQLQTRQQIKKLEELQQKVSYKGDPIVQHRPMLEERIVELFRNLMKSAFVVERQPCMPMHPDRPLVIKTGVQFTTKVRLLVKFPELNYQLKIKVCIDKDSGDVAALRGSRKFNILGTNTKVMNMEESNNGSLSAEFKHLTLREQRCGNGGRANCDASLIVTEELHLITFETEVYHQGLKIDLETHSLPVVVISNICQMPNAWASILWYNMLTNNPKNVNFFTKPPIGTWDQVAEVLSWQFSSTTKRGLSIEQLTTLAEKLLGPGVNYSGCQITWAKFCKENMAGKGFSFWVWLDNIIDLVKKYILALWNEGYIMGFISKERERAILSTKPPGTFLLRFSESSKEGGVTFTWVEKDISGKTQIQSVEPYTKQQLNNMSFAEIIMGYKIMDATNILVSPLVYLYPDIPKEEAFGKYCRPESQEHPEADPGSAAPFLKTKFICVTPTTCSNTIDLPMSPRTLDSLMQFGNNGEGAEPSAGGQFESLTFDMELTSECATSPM
# Method: FIG. 9 is an image showing the Western blotting analysis of total STAT3 protein and phosphorylated STAT3 (Y705) in DLD-1 and DLD-1 (Y705F) cells treated with Cpd.
# as §1
# [5] = target: T3, STAT1 (Homo sapiens, UniProt P42224); assay: Estimated DC50 for STAT1 degradation in MOLM-16 cells (immunoblotting); details: MOLM-16, 4 h; read-out: Estimated DC50 STAT1
# T3 construct: In vitro cultured cells or xenograft tumors were lysed; endogenous in cells; host or cells: MOLM-16
# T3 sequence (P42224 1-750): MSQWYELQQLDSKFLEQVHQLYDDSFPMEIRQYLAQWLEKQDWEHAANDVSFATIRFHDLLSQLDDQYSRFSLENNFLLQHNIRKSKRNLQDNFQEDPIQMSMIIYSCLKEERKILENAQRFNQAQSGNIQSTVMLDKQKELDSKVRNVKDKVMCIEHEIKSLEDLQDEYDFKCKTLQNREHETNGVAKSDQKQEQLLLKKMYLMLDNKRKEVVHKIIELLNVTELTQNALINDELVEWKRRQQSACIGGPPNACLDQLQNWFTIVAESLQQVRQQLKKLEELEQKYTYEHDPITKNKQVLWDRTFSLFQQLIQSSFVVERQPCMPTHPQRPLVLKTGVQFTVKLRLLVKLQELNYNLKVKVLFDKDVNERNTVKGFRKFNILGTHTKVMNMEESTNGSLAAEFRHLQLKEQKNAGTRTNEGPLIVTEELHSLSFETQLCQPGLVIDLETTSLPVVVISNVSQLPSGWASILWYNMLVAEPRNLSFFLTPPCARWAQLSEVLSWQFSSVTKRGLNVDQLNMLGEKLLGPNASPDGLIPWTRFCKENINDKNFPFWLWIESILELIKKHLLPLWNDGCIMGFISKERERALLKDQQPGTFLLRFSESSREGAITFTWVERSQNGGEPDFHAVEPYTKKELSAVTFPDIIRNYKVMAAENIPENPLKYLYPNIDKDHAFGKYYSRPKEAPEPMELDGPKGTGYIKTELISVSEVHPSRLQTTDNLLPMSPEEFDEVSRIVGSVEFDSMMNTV
# Method: (§2) FIG. 62 is a series of four images showing the fluorescent immunoblotting analysis of STAT1 and STAT3 protein in Molm-16 cells after treatment for 4 h with Cpd. Nos. 331, 296, 361, 362, 363, 364, 365, 366, and 367 at the concentrations indicated.
# as §1
# (§3) The estimated DC50 in MOLM-16 cells of representative Compounds of the Disclosure against STAT3 and STAT1 is provide in Table 5.
# [6] = target: T1, STAT3; assay: Estimated DC50 for STAT3 degradation in MOLM-16 cells (immunoblotting); set-up: In vitro cultured cells or xenograft tumors were lysed; endogenous in cells; host or cells: MOLM-16; details: MOLM-16, 4 h; read-out: Estimated DC50 STAT3
# Method: as §2, §1, §3
Structure (SMILES),cell growth inhibition [1],selectivity of STAT3 degradation over other STAT members (Western blot) [2],selectivity of STAT3 degradation over other STAT members (Western blot) [3],degradation of mutated STAT3 protein (Western blot) [4],DC50 [5] [nM],DC50 [6] [nM]
"NC(=O)CC[C@H](NC(=O)[C@@H]1CC[C@@H]2CCN(C(=O)CCCCCC#Cc3cccc4c3CN(C3CCC(=O)NC3=O)C4=O)C[C@H](NC(=O)c3cc4cc(C(F)(F)P(=O)(O)O)ccc4[nH]3)C(=O)N21)C(=O)NC(c1ccccc1)c1ccccc1 (stereo partly drawn) [Cpd. No. 36, ((2-(((5S,8S,10aR)-8-(((S)-5-amino-1-(benzhydrylamino)-1,5-dioxopentan-2-yl)carbamoyl)-3-(8-(2-(2,6-dioxopiperidin-3-yl)-1-oxoisoindolin-4-yl)oct-7-ynoyl)-6-oxodecahydropyrrolo[1,2-a][1,5]diazocin-5-yl)carbamoyl)-1H-indol-5-yl)difluoromethyl)phosphonic Acid]",inhibits cell growth,specifically degrades STAT3 protein over other STAT members,specifically degrades STAT3 protein over other STAT members,degrades mutated STAT3 proteins,,
"CCN1CC[C@H]2CC[C@@H](C(=O)N[C@@H](CCC(N)=O)C(=O)N[C@@H](Cc3ccc(C(=O)NC4CCCCC4)cc3)C(=O)N3CCC(CCC#Cc4cccc5c4CN(C4CCC(=O)NC4=O)C5=O)CC3)N2C(=O)[C@@H](NC(=O)c2cc3cc(C(F)(F)P(=O)(O)O)ccc3s2)C1 (stereo partly drawn) [Cpd. No. 367, ((2-(((5S,8S,10aR)-8-(((2S)-5-amino-1-(((2S)-3-(4-(cyclohexylcarbamoyl)phenyl)-1-(4-(4-(2-(2,6-dioxopiperidin-3-yl)-1-oxoisoindolin-4-yl)but-3-yn-1-yl)piperidin-1-yl)-1-oxopropan-2-yl)amino)-1,5-dioxopentan-2-yl)carbamoyl)-3-ethyl-6-oxodecahydropyrrolo[1,2-a][1,5]diazocin-5-yl)carbamoyl)benzo[b]thiophen-5-yl)difluoromethyl) phosphonic acid]",,,,,< 1000,< 1000
"CCN1CC[C@H]2CC[C@@H](C(=O)N[C@@H](CCNC(N)=O)C(=O)N[C@@H](Cc3ccc(C(C)(C)C)cc3)C(=O)N3CCC(CCC#Cc4cccc5c4CN(C4CCC(=O)NC4=O)C5=O)CC3)N2C(=O)[C@@H](NC(=O)c2cc3cc(C(F)(F)P(=O)(O)O)ccc3s2)C1 (stereo partly drawn) [compound 355, ((2-(((5S,8S,10aR)-8-(((2S)-1-(((2S)-3-(4-(tert-butyl)phenyl)-1-(4-(4-(2-(2,6-dioxopiperidin-3-yl)-1-oxoisoindolin-4-yl)but-3-yn-1-yl)piperidin-1-yl)-1-oxopropan-2-yl)amino)-1-oxo-4-ureidobutan-2-yl)carbamoyl)-3-ethyl-6-oxodecahydropyrrolo[1,2-a][1,5]diazocin-5-yl)carbamoyl)benzo[b]thiophen-5-yl)difluoromethyl)phosphonic acid]",,,,,> 1000,> 1000
"CCN1CC[C@H]2CC[C@@H](C(=O)N[C@@H](CNC(N)=O)C(=O)N[C@@H](Cc3ccc(C(C)(C)C)cc3)C(=O)N3CCC(CCC#Cc4cccc5c4CN(C4CCC(=O)NC4=O)C5=O)CC3)N2C(=O)[C@@H](NC(=O)c2cc3cc(C(F)(F)P(=O)(O)O)ccc3s2)C1 (stereo partly drawn) [compound 356, ((2-(((5S,8S,10aR)-8-(((2S)-1-(((2S)-3-(4-(tert-butyl)phenyl)-1-(4-(4-(2-(2,6-dioxopiperidin-3-yl)-1-oxoisoindolin-4-yl)but-3-yn-1-yl)piperidin-1-yl)-1-oxopropan-2-yl)amino)-1-oxo-3-ureidopropan-2-yl)carbamoyl)-3-ethyl-6-oxodecahydropyrrolo[1,2-a][1,5]diazocin-5-yl)carbamoyl)benzo[b]thiophen-5-yl)difluoromethyl)phosphonic acid]",,,,,> 1000,< 250
